Measurements taken from patent publication US20230165872A1, “COMBINATION OF BCMA-DIRECTED T CELL THERAPY AND AN IMMUNOMODULATORY COMPOUND” (Juno Therapeutics, Inc., priority 2020, published 2023).

Key:
[1] = tested on: OPM2 (multiple myeloma) cells; experiment: Murine orthotopic OPM-2 tumor model (sensitive), anti-BCMA CAR T cells plus Compound A; format: in vivo, mouse; details: for tumor burden (BLI) versus anti-BCMA CAR T cells alone: combination with 0.5×10^6 CAR T cells, 1 or 3 mg/kg oral, FIG. 6A; for survival versus anti-BCMA CAR T cells alone: FIG. 6B
Procedure: Anti-tumor effects of anti-BCMA CAR T cells, alone and in combination with concurrent or delayed administration of Compound A (iberdomide, (S)-3-[4-(4-morpholin ylmethyl-benzyloxy)-1-oxo-1,3-dihydro-isoindol-2-yl]-piperidine-2,6-dione), were assessed in disseminated tumor models. The combinatorial effects were assessed in both tumor models sensitive to and resistant to the immunomodulatory compound. The anti-BCMA CAR T cells used in the study were produced as described in Example 1.
The effects of anti-BCMA CAR-T cells in combination with Compound A was assessed in a murine orthotopic tumor model using OPM-2 cells, which is an tumor model sensitive to the immunomodulatory compound. Mice (NOD.Cg-Prkdc^scidIL-2rg^tm1Wj1/SzJ mice (NSG; Jackson Labs)) were injected intravenously (i.v.) with 2×10^6 OPM2 (multiple myeloma) cells transfected with firefly luciferase (OPM2-ffluc). Tumor engraftment was allowed to occur for 13 days prior to staging (14 days before CAR-T cell administration) and verified using bioluminescence imaging.
In one study, mice were administered Compound A (1 mg/kg or 3 mg/kg) via oral administration once a day starting from the day before administration of 0.5×10^6 anti-BCMA CAR T cells, and administration of Compound A was continued once a day until 32 days post-CAR T cell administration (concurrent dosing). In another study, mice were administered 0.5×10^6 anti-BCMA CAR T cells, and then Compound A (1 mg/kg or 3 mg/kg) was administered via oral administration once a day starting 12 days after anti-CAR T cell administration, which was after the peak of CAR-expressing T cell expansion, and administration was continued for 21 days until 32 days post-CAR T cell administration (delayed dosing).
For bioluminescence imaging (BLI), mice received intraperitoneal (i.p.) injections of luciferin substrate (CaliperLife Sciences, Hopkinton, Mass.) resuspended in PBS (15 μg/g body weight). The average radiance (p/s/cm^2/sr) was determined. Survival of mice treated as described above were assessed and compared over time post-infusion of CAR-expressing T cells. Survival curves were generated using the Kaplan-Meier method (GraphPad Prism 7.0, GraphPad Software, La Jolla).
The numbers of CD3+ CAR T cells were determined in the blood at day 6 and day 14 by flow cytometry using antibodies directed against CD3 and the surrogate marker on the CAR-expressing cells.

Ikaros = experiment: Intracellular Ikaros expression in BCMA-bead stimulated anti-BCMA CAR T cells (flow cytometry, MFI); format: cell-based, human
Procedure: A BCMA-Fc fusion protein containing the extracellular domain of human BCMA and a human IgG1Fc was conjugated to beads by covalently coupling to the surface of commercially available tosyl-activated magnetic beads having a diameter of approximately […] (M-450 beads, ThermoFisher, Waltham Mass.) (see e.g. International published PCT App. No. WO2019/027850). Following incubation, anti-BCMA CAR-expressing T cells were stained with antibodies and analyzed by flow cytometry to assess intracellular levels of Ikaros and Aiolos in CD4+CAR+ or CD8+CAR+ cells, as measured by median fluorescence intensity (MFI). Median fluorescence intensity (MFI) values for Ikaros and Aiolos were normalized and calculated as a percentage relative to vehicle control.

O=C1CC[C@H](N2Cc3c(OCc4ccc(CN5CCOCC5)cc4)cccc3C2=O)C(=O)N1 [Compound A, (S)-3-[4-(4-morpholin-4-ylmethyl-benzyloxy)-1-oxo-1,3-dihydro-isoindol-2-yl]-piperidine-2,6-dione]
single agent antitumor activity ([1]; Compound A alone, 1 or 3 mg/kg oral once a day): some single agent antitumor activity | tumor burden (BLI) versus anti-BCMA CAR T cells alone ([1]; concurrent dosing): reduce tumor burden | tumor burden (BLI) versus anti-BCMA CAR T cells alone ([1]; delayed dosing from day 12): reduce tumor burden | survival versus anti-BCMA CAR T cells alone ([1]; combination, concurrent dosing): improve survival | numbers of CD3+ CAR+ T cells in the blood ([1]; combination, concurrent regimen, day 6 and day 14, FIG. 6C): trend towards increased numbers | survival versus anti-BCMA CAR T cells alone ([1]; combination, delayed dosing): improve survival | intracellular Ikaros expression (MFI, percentage relative to vehicle control) (Ikaros; CD4+CAR+ or CD8+CAR+ cells, 24 or 72 hours, lenalidomide 1000 nM, Compound A 1, 10, 100 nM, Compound B 0.1, 1, 10 nM): concentration dependent decrease | potency in decreasing Ikaros and Aiolos expression, compared with lenalidomide (Ikaros; stimulated anti-BCMA CAR T cells): more potent than lenalidomide
